The text below walks through data of US8841317B2 (Emory University, priority 2010, dated 2014).

Data set [1] deals with human or murine macrophages. The data set can be described thus: Cellular viability (trypan blue exclusion, morphology, LDH). The format is cell-based, human and murine. The procedure:
(§1) Biochim Biophys Acta 887: 13-22.]. […] Cellular aliquots (100 μl) were taken daily and cells were diluted 1:1 with the vital dye trypan blue 0.4% solution (Cellgro, Mediatech Inc, Herndon, Va.) in PBS and viable cells were counted. LDH release into the supernatant was also measured to assess the toxicity of the drugs. […] Cell Microbiol 7: 1251-1262.].

The next data set relates to THP-1 macrophages. The experiment in a line: Respiratory burst ROS release (lucigenin chemiluminescence). It counts as cell-based, human. The procedure: The enhanced chemiluminescence method was used as previously described [Zughaier S M, Ryley H C, Jackson S K (1999) A melanin pigment purified from an epidemic strain of Burkholderia cepacia attenuates monocyte respiratory burst activity by scavenging superoxide anion. Infect Immun 67: 908-913.]. Briefly, freshly grown THP-1 cells were adjusted to 2×10^6/ml, transferred to two large tissue culture flasks labeled as primed or unstimulated. Two pmole/ml LPS were added to prime cells or left unstimulated as control cells. Both flasks were incubated overnight at 37° C. under 5% CO2. […] The cells were collected in universal tubes, washed twice with culture medium and resuspended in standard buffer (4.58 mM KH2PO4, 8.03 mM NaHPO4, 0.5 mM MgCl2, 0.45 mM CaCl2, 1% (w/v) glucose, 0.033% (w/v) KCl, 0.76% (w/v) NaCl and 0.1% (w/v) endotoxin-free bovine serum albumin (pH 7.3) at 2×10^6/ml. The chemiluminescence probe lucigenin (Sigma) was added to the cell suspension (25 μl/ml of cells from 1.0 mM stock solution) and mixed gently. Aliquots (150 μl) of the cellular mixture were transferred into at least quadruplicate wells of a white 96-well plate (FluoroNunc-PolySorp; Nalge Nunc International, Rochester, N.Y.). The respiratory burst was triggered with 50 μl of PMA (1 μM). Chemiluminescence was measured in relative light units (a measure of the number of photons generated by the reaction at each time point). Chemiluminescence was measured using a luminometer (ML3000, Dynatech Laboratories Inc. Chantilly, Va.) and the plate was read immediately and then at 2 min intervals for the next 90 min [Zughaier S M, Ryley H C, Jackson S K (1999) A melanin pigment purified from an epidemic strain of Burkholderia cepacia attenuates monocyte respiratory burst activity by scavenging superoxide anion. Infect Immun 67: 908-9131.

Data set [2] deals with RAW264 (TLR4-sufficient) cells. The data set can be described thus: Sterile inflammation: nitric oxide release after murine IP-10 (CXCL10) stimulation. The format is cell-based. The settings on record: 50 μM for 1 hr or overnight, then murine IP-10 1000-31.2 pg/ml. As to the method:
(§2) TLR ligand concentrations ranging from (LPS: 10-0.31 picomolar (pM) and Pam3CSK4: 10-0.31 μg/ml) and non-TLR ligands (mouse IP-10 and TNFα: 1000-31 pg/ml) were made in duplicate wells using sterile PBS by serial fold dilutions in the 96-well tissue culture plates at 50 μl final volumes. Freshly grown THP-1cells, RAW264.7, ScCr, HEK-TLR2/6 and HEK-TLR4-MD2-CD14 transfected cells each adjusted to 10^6 cell/ml and 250 μl aliquots were dispensed into each well at a final cell density of 250×10^3 in the designated 96-well plates. The plates were then incubated overnight at 37° C. with 5% CO2 and humidity. Supernatants from stimulated cells were harvested and stored at −20° C. until further use.
(§3) Freshly grown adherent RAW 246.7 or 23ScCr (TLR4-deficient) macrophages were scraped by a cell scraper. Harvested cells were washed and re-suspended in Dulbecco's complete media, counted and adjusted to 10^6 cell/ml. […] aliquots were then dispensed into each well at final 250×10^3 cell density in the designated 96-well plates prior to stimulation with TLR ligands or recombinant cytokines as mentioned above. […] Nitric oxide release was quantified using the Griess chemical method as previously described [Zughaier S M, Tzeng Y L, Zimmer S M, Datta A, Carlson R W, et al. (2004) Neisseria meningitidis lipooligosaccharide structure-dependent activation of the macrophage CD14/Toll-like receptor 4 pathway. […]

The test system of data set [3] is ScCr (TLR4-deficient) cells. The data set can be described thus: Sterile inflammation: nitric oxide release after murine TNFα stimulation. The format is cell-based. Conditions: 50 μM for 1 hr or overnight, then murine TNFα 1000-31.2 pg/ml. As to the method: as §2, §3
The test system of data set [4] is THP-1 cells. The data set can be described thus: LDH release into supernatant. It counts as cell-based, human. The settings on record: THP-1 cells incubated 48 hr with 50 μM; DMSO control 5 IU/L. As to the method:
as §1

In data set [5] the test system is RAW 264.7 murine macrophages. The experiment in a line: Nitric oxide release from TLR ligand-stimulated murine macrophages (Griess method). It counts as cell-based. The settings on record: TLR ligands LPS or Pam3CSK4. The procedure:
as §2, §3

The subject of data set [6] is HEK293 cells transfected with TLR2 alone or TLR2/6 receptors. The experiment in a line: Pam3CSK4-induced IL-8 release (ELISA). It counts as cell-based, human. Conditions: no drug = 1400 pg/ml. As to the method: as §2
(§4) Released cytokines TNFα and IL-6 and chemokines CXCL10 (IP-10), MIP-2α and IL-8 were quantified by DuoSet ELISA (R&D Systems, Minneapolis, Minn.) following the manufacturer's instructions as previously described [Zughaier S M, Zimmer S M, Datta A, Carlson R W, Stephens D S (2005) Differential induction of the toll-like receptor 4-MyD88-dependent and -independent signaling pathways by endotoxins. Infect Immun 73: 2940-2950.].

The conditions of data set [7]: doses as high as 300 mg/kg; cited from earlier work.
In a further data set the test system is THP-1 human macrophages. The data set can be described thus: TNFα release from TLR ligand-stimulated human macrophages (ELISA). It counts as cell-based. Conditions: human and murine macrophages; TLR ligands LPS or Pam3CSK4. As to the method: as §2, §4
Data set [8] deals with THP-1 cells. The experiment in a line: Detection of acidic vesicular organelles (acridine orange). It counts as cell-based, human. The settings on record: 24 hr treatment, acridine orange 1 μg/ml. The procedure: THP-1 cells were plated on cover slips and allowed to attach. Following treatments for 24 hr with DMSO alone (control), Red-Br-nos, LPS, Red-Br-nos and LPS, cells were stained with 1 μg/ml acridine orange for 15 min, washed with PBS, and examined under a Zeiss fluorescence microscope using a 40× objective lens [Herman-Antosiewicz A, Johnson D E, Singh S V (2006) Sulforaphane causes autophagy to inhibit release of cytochrome C and apoptosis in human prostate cancer cells. Cancer Res 66: 5828-5835.].

The subject of data set [9] is human macrophage cells THP-1. The data set can be described thus: Autophagy by electron microscopy. The format is cell-based. The settings on record: overnight, LPS 2 pM plus drug 50 μM. As to the method:
Human macrophage cells were fixed for 1 hr with 2% glutaraldehyde in 0.1M sodium cacodylate buffer, rinsed in the same buffer and the post-fixed with 2% osmium tetroxide in the same buffer for 1 hr at room temperature. The samples were then dehydrated with a graded ethanol series through 3×100%, 2× in propylene oxide and embedded in Spurr's resin. Sections were stained with 1% uranyl acetate and lead citrate. Electron microscopy imaging was then performed at a magnification of 3597×.

“Also recorded” adds a separate entry of the source. Like-named read-outs stand apart in the source and are kept apart here.

With `COc1ccc2c(c1OC)C(=O)O[C@@H]2[C@H]1c2c(cc3c(c2OC)OCO3)CCN1C` [noscapine, (S)-6,7-dimethoxy-3-((R)-4-methoxy-6-methyl-5,6,7,8-tetrahydro[1,3]-dioxolo-[4,5-g]isoquinolin-5-yl)isobenzo-furan-1(3H)-one], the “cellular toxicity / viability” value in [1] (human and murine macrophages) was “did not induce inflammatory responses or impair cellular viability”. The “ROS release, LPS primed cells” value with THP-1 macrophages (50 μM added just prior to PMA-triggered respiratory burst) was “enhanced ROS release”. For the same molecule, the “ROS release, unprimed macrophages” value with THP-1 macrophages (50 μM added just prior to respiratory burst) was “not in unprimed macrophages”. Also, the “ROS release, primed macrophages” value in the data set on THP-1 macrophages (added 2 hr prior to triggering the respiratory burst) is given as “no change in ROS release”. For the same molecule, the “nitric oxide release versus no drug” value in data set [2] and in data set [3] was “not significant” in each case. For the same molecule, the LDH release with THP-1 cells [4] was determined as 7 IU/L.
With `COc1ccc2c(c1OC)C(=O)O[C@@H]2[C@H]1c2c(c(Br)c3c(c2OC)OCO3)CCN1C` [Br-nos, (S)-3-((R)-9-bromo-4-methoxy-6-methyl-5,6,7,8-tetrahydro-[1,3]dioxolo[4,5-g]isoquinolin-5-yl)-6,7-dimethoxyiso-benzofuran-1(3H)-one], the “TLR-mediated nitric oxide (NO) release” value in [5] was “dampened”. Moreover, the “cellular toxicity / viability” value in data set [1] (human and murine macrophages) is listed as “without evidence of cellular toxicity”. Further, the IL-8 release in data set [6] is 650 pg/mL. Further, the toxicity result in data set [7] is given as “non-toxic”. This molecule also yielded an LDH release in the data set on THP-1 cells [4] of 8 IU/L. The “TLR-mediated TNFα release” value in the data set with THP-1 human macrophages was “dampened”.
Regarding `COc1ccc2c(c1OC)CO[C@@H]2[C@H]1c2c(c(Br)c3c(c2OC)OCO3)CCN1C` [Red-Br-nos, (R)-9-bromo-5-((S)-4,5-dimethoxy-1,3-dihydroisobenzofuran-1-yl)-4-methoxy-6-methyl-5,6,7,8-tetrahydro-[1,3]di-oxolo-[4,5-g]isoquinoline], the “TLR-mediated nitric oxide (NO) release” value in data set [5] was “dampened”. Also, the “cellular toxicity / viability” value in data set [1] was “without evidence of cellular toxicity”. In data set [6], the IL-8 release was 400 pg/mL. Also, the toxicity entry in [7] is “non-toxic”. In the data set on THP-1 cells [4], this molecule registered an LDH release of 10 IU/L. Further, the “acidic vesicular organelles (AVOs)” value with THP-1 cells [8] was “confirmed the drug-induced autophagic activity; also recorded: formation (red fluorescence) of acridine orange-accumulating acidic vesicular organelles (AVOs)”. In data set [9], the “autophagy-related vacuolation (electron micrographs)” value is listed as “increased vacuolation in the cytoplasm”. In addition, the “TLR-mediated TNFα release” value in the data set on THP-1 human macrophages is on record as “dampened”.
